The subject of test [1] is Podophyllum hexandrum emblings. Briefly: True leaf emergence after embling development and field transfer. The settings on record: media supplemented with 2.5 μM Gibberellic acid; after 12 weeks of field transfer. On the procedure: (§1) To describe in detail, the method comprises collection of mature pods of P. hexandrum Royle from their natural habitats in the Western Himalayas at an altitude ranging from 2700 m-3500 m above mean sea level during the last week of August and first week of September. Immediately after collection, the seeds were separated from the pulp. Prior to disinfection with 0.1% Bavistin and streptomycin sulphate (0.1%) for 15 minutes, followed by a thorough washing of seeds. After a 1 minute dip in 70% alcohol and surface sterilization in 0.1% mercuric chloride for 7 minutes, all traces of mercuric chloride were finally washed off by 4-5 rinses in sterile distilled water. The surface sterilized seeds were then dissected by a sharp excision with a scalpel blade at the base of the microplyar lobe and embryos were carefully squeezed out of their micropylar groove. The embryos were cultured on B-5 (Gamborg et al., 1968) medium supplemented with 3% sucrose of pH 5.8 adjusted with 1N KOH and HCl prior to the addition of agar (0.8%) and were finally sterilized at […] for 20 minutes. All the cultures were maintained in this medium for one week at 25±2° C. in dark for embryo germination. […]

The subject of test [2] is Podophyllum hexandrum zygotic embryos. Briefly: Germination of excised zygotic embryos cultured on different media supplemented with Gibberellic acid. The settings on record: 2.5 μM Gibberellic acid in different media (B5, MS, WPM); excised zygotic embryos of different regimes. On the procedure: as §1

The structures appear in SMILES notation.

Regarding `C=C1C[C@]23C[C@@]1(O)CC[C@H]2[C@@]12C=C[C@H](O)[C@@](C)(C(=O)O1)[C@H]2[C@@H]3C(=O)O` [Gibberellic acid], in test [1], the true leaf emergence entry is given as “no true leaf emergence was recorded”. The embryo germination entry in test [2] was “Germination was evoked in all the media”.
